Data published in the NIST ThermoML archive (doi:10.1016/j.jct.2013.01.026).
± gives the expanded uncertainty stated by the source.

Experiments:
[1] = refractive index (other wavelength) (dimensionless); details: 298.15 K, 101.3 kPa, Liquid, Standard Abbe refractometry
[2] = refractive index (other wavelength) (dimensionless); wn = mass fraction of the nth substance listed; details: 298.15 K, 101.3 kPa, Liquid, Standard Abbe refractometry

c1ccc2c(c1)CCCC2 [1,2,3,4-tetrahydronaphthalene]
[1]
Details | refractive index
Wavelength=670 nm | 1.53479 ± 0.00052
Wavelength=925 nm | 1.52642 ± 0.00052

c1ccc2c(c1)CCCC2 [1,2,3,4-tetrahydronaphthalene] + CCCCCCCCCCCC
refractive index, [2]
Details | w2 = 0 | w2 = 0.1 | w2 = 0.1999 | w2 = 0.2999 | w2 = 0.4001 | w2 = 0.4999 | w2 = 0.6002 | w2 = 0.6999 | w2 = 0.8 | w2 = 0.9001
Wavelength=670 nm | 1.53479 ± 0.00052 | 1.51956 ± 0.00051 | 1.505 ± 0.0005 | 1.49244 ± 0.00048 | 1.47987 ± 0.00047 | 1.46832 ± 0.00045 | 1.45728 ± 0.00044 | 1.44674 ± 0.00043 | 1.43694 ± 0.00042 | 1.42736 ± 0.0004
Wavelength=925 nm | 1.52642 ± 0.00052 | 1.51181 ± 0.00051 | 1.49762 ± 0.00049 | 1.48558 ± 0.00048 | 1.47343 ± 0.00047 | 1.4622 ± 0.00045 | 1.45157 ± 0.00044 | 1.44149 ± 0.00043 | 1.43179 ± 0.00042 | 1.42273 ± 0.0004

CC(C)Cc1ccccc1 [(2-methylpropyl)benzene]
[1]
Details | refractive index
Wavelength=670 nm | 1.48071 ± 0.00035
Wavelength=925 nm | 1.47345 ± 0.00035

CC(C)Cc1ccccc1 [(2-methylpropyl)benzene] + CCCCCCCCCCCC
refractive index, [2]
Details | w2 = 0.0998 | w2 = 0.2001 | w2 = 0.3002 | w2 = 0.4 | w2 = 0.4999 | w2 = 0.6 | w2 = 0.7001 | w2 = 0.8002 | w2 = 0.9001
Wavelength=670 nm | 1.47308 ± 0.00036 | 1.46588 ± 0.00036 | 1.45898 ± 0.00036 | 1.45233 ± 0.00037 | 1.44607 ± 0.00037 | 1.44006 ± 0.00037 | 1.43407 ± 0.00038 | 1.42875 ± 0.00038 | 1.42337 ± 0.00039
Wavelength=925 nm | 1.46604 ± 0.00036 | 1.45912 ± 0.00036 | 1.45266 ± 0.00036 | 1.44638 ± 0.00037 | 1.44043 ± 0.00037 | 1.43444 ± 0.00037 | 1.42884 ± 0.00038 | 1.42387 ± 0.00038 | 1.4187 ± 0.00039

CC(C)Cc1ccccc1 [(2-methylpropyl)benzene] + c1ccc2c(c1)CCCC2
refractive index, [2]
Details | w2 = 0 | w2 = 0.1003 | w2 = 0.2 | w2 = 0.2999 | w2 = 0.3977 | w2 = 0.4996 | w2 = 0.6002 | w2 = 0.699 | w2 = 0.8001 | w2 = 0.8997
Wavelength=670 nm | 1.48071 ± 0.00035 | 1.48573 ± 0.00036 | 1.49084 ± 0.00037 | 1.49587 ± 0.00039 | 1.50109 ± 0.0004 | 1.50663 ± 0.00042 | 1.51197 ± 0.00044 | 1.51743 ± 0.00046 | 1.52313 ± 0.00048 | 1.52865 ± 0.0005
Wavelength=925 nm | 1.47345 ± 0.00035 | 1.47803 ± 0.00036 | 1.48337 ± 0.00038 | 1.48805 ± 0.00039 | 1.49344 ± 0.0004 | 1.49865 ± 0.00042 | 1.50413 ± 0.00044 | 1.5092 ± 0.00046 | 1.51499 ± 0.00048 | 1.52005 ± 0.0005

CCCCCCCCCCCC [dodecane]
[1]
Details | refractive index
Wavelength=670 nm | 1.41845 ± 0.00039
Wavelength=925 nm | 1.41407 ± 0.00039

CCCCCCCCCCCC [dodecane] + CC(C)Cc1ccccc1
[2], w1 = 1
Details | refractive index
Wavelength=670 nm | 1.41845 ± 0.00039
Wavelength=925 nm | 1.41407 ± 0.00039
